Assays:
[1] = tested on: swine model of cardiac arrest; conditions: in vivo
normovolemic swine model = conditions: in vivo

With `CNC[C@H](O)c1ccc(O)c(O)c1` [epinephrine, (R)-4-(1-hydroxy-2-(methylamino)ethyl)benzene-1,2-diol] the “peak MAP” value [1] was 90 mmHg, the “sustained pressure over baseline” value [1] was “greater than 50 mmHg” and the “time post injection at which increases in MAP were detected” value [1] was 10 to 20 s. The “time post injection to peak MAP” value [1] was no more than 60 s, the “time to MAP peak at sustained pressure over baseline” value [1] was no more than 80 s and the “time until physiological effects (increase in MAP over baseline MAP) were detected” value [1] was less than 20 seconds. For the same compound, the “time until rapid and sustained MAP occurred” value [1] was less than 60 s, the “increase of MAP over baseline” value (normovolemic swine model) was “more than 60 mmHg” and the “time post injection at which increases in MAP were detected” value (normovolemic swine model) was 10 to 20 s. For the same compound, the “time post injection to peak MAP” value (normovolemic swine model) was no more than 60 s, the “sustained MAP” value (normovolemic swine model; 0.4 mg/kg) was “more than 60 mmHg” and the “time post-injection at which an increase in MAP was detected” value (normovolemic swine model; iv) was 30 s. The “time from administration until absorbed and placed into the circulating blood” value (normovolemic swine model; swine) was 10 to 20 s.

— patent US8597616B2 (priority 2007, dated 2013)
